Test system: Ninety four (94) cell lines and PBMC
Assay: Cell viability assay, SRB staining, 94 cell lines and PBMC (Example 7, Experiment 2)
Type: cell-based
Protocol: Ninety four (94) cell lines were seeded at a density varying from 500 to 7000 cells/well depending on their growth characteristics. PBMC were seeded at the density 50,000-100,000 cells/well. Cells were incubated for 48 h prior to compound treatment. Compound 1 and DON were evaluated at a concertation range of 1 nM up to 100 μM. Compound 1 dilutions in DMSO and DON dilutions in PBS were performed in 96-well 0.5 mL plates (Greiner Bio-One, Germany). Compounds were then diluted 1:100 in RPMI medium. […] of cells were treated by mixing with 10 μL of the compound-containing media (resulting in a final DMSO concentration of 0.1%). The cells were allowed to grow at 37° C. for 120 h. Cells were fixed to the surface by addition of 10% TCA (for adherent growing cells) or 50% TCA (for semi-adherent growing cells or cells growing in suspension). After an hour of incubation at 4° C., plates were washed twice with 400 μL of deionized water and dried. Cells were then stained with 100 μL of 0.04% wt/v SRB. The plates were incubated at room temperature for at least 30 min and washed six times with 1% acetic acid to remove unbound stain. The plates were left to dry at room temperature and bound SRB was solubilized with 100 μL of 10 mM Tris base. Optical density was measured at 492, 520 and 560 nm using a Deelux-LED96 plate reader (Deelux Labortechnik GmbH, Germany).
Cell lines were purchased directly from the ATCC, NCI, CLS, and DSMZ cell line collections. A master bank and working aliquots were prepared. Cells used for the study had undergone less than 20 passages. To rule out potential contamination or wrong assignment, all cell lines were tested by STR analysis. Absence of mycoplasma contamination was confirmed for all cell lines used in the studies.
The cell lines were grown in the media recommended by the suppliers in the presence of 100 U/mL penicillin and 100 μg/mL streptomycin supplied with 10% FCS (PAA, Germany). RPMI 1640, DMEM, and MEM Earle's medium were from PAA (Coelbe, Germany), supplements 2 mM L-glutamine, 1 mM Na-pyruvate and 1% NEAA were from PAA (Coelbe, Germany), 2.5% horse serum, hydrocortisone, transferin, beta-estradiol, selenite and 1 U/mL insulin from Sigma-Aldrich (Munich, Germany). RPMI medium was used for culturing the following cell lines: 5637, 22RV1, 7860, A2780, A431, A549, ACHN, ASPC1, BT20, BXPC3, CAKI1, CLS439, COLO205, COLO678, DLD1, DU145, EFO21, EJ28, HCT15, HS578T, IGROV1, JAR, LOVO, MCF7, MDA MB231, MDA MB435, MDA MB436, MDA MB468, MHHES1, MT3, NCI H292, NCI H358M, NCI H460, NCIH82, OVCAR3, OVCAR4, PANC 1005 (addition of insulin), PBMC, PC3, RDES, SF268, SF295, SKBR3, SK MEL28, SKMEL5, SKOV3, SW620, U2OS, UMUC3, and U031.
DMEM medium was used to culture A204, A375, A673, C33A, CASKI, HCT116, HEPG2, HS729, HT29, J82, MG63, MIAPACA2 (addition of horse serum), PANC1, PLCPRF5, RD, SAOS2, SKLMS1, SKNAS, SNB75, T24, and TE671.
MEM Earle's medium was used for CACO2, CALU6, HEK293, HELA, HT1080, IMR90, JEG3, JIMT1, SKHEP1, SKNSH, and U87MG. Cell seeding conditions were optimized for each cell line. The cell seeding density varied from 500 to 7000 cells/well depending on their growth characteristics. Peripheral blood mononuclear cells (PBMC) were freshly isolated from whole blood of an anonymous donor through density gradient centrifugation using Ficoll solution (d=1.077). In short, blood was diluted 1:1 with PBS and carefully placed on the Ficoll. After centrifugation 1000×g for 15 min (braking rate 0), the ring containing mainly leucocytes was collected in PBS followed by three times washing with PBS to reduce the platelets. PBMC were seeded at the density 50,000-100,000 cells/well. Cells were grown in 5% CO2 atmosphere in a NB-203XXL incubator (N-BIOTEK Inc., Korea).
Ninety-four cell lines were tested in parallel. Cell growth and treatment were performed in 96 well microtitre plates CELLSTAR® (Greiner Bio-One, Germany). […]

[1] = Homo sapiens, 22Rv1, 22RV1, prostate
[2] = Homo sapiens, 786-0, 786O, kidney
[3] = Homo sapiens, A204, A204, muscle
[4] = Homo sapiens, A673, A673, muscle
[5] = Homo sapiens, A2780, A2780, ovary
[6] = Homo sapiens, A-375, A375, skin
[7] = Homo sapiens, A-431, A431, skin
[8] = Homo sapiens, ASPC1, ASPC1, pancreas
[9] = Homo sapiens, BT-20, BT20, breast
[10] = Homo sapiens, C-33-A, C33A, endometrial
[11] = Homo sapiens, CAKI-1, CAKI1, kidney
[12] = Homo sapiens, COLO 205, COLO205, colon
[13] = Homo sapiens, Ca-Ski, CASKI, endometrial
[14] = Homo sapiens, Caco-2, CACO2, colon
[15] = Homo sapiens, Calu-6, CALU6, lung
[16] = Homo sapiens, DLD-1, DLD1, colon
[17] = Homo sapiens, DU-145, DU145, prostate
[18] = Homo sapiens, EFO-21, EFO21, ovary
[19] = Homo sapiens, EJ-28, EJ28, bladder
[20] = Homo sapiens, Granta-519, GRANTA-519, hematological
[21] = Homo sapiens, HCT-15, HCT15, colon
[22] = Homo sapiens, HCT-116, HCT116, colon
[23] = Homo sapiens, HEK293, HEK293, kidney
[24] = Homo sapiens, HL-60, HL-60, hematological
[25] = Homo sapiens, HT-29, HT29, colon
[26] = Homo sapiens, HT-1080, HT1080, connective tissue
[27] = Homo sapiens, HeLa, endometrial
[28] = Homo sapiens, HepG2, HEPG2, liver
[29] = Homo sapiens, IGROV-1, IGROV1, ovary
[30] = Homo sapiens, JEG-3, JEG3, placenta
[31] = Homo sapiens, JIMT-1, JIMT1, breast
[32] = Homo sapiens, K562, K-562, hematological
[33] = Homo sapiens, Kasumi 1, KASUMI-1, hematological
[34] = Homo sapiens, L-363, L-363, hematological
[35] = Homo sapiens, MCF7, MCF7, breast
[36] = Homo sapiens, MDA-MB-231, MDAMB231, breast
[37] = Homo sapiens, MDA-MB-435, MDAMB435, skin
[38] = Homo sapiens, MDA-MB-436, MDAMB436, breast

In the case of `CC(=O)N[C@@H](Cc1c[nH]c2ccccc12)C(=O)N[C@@H](CCC(=O)C=[N+]=[N-])C(=O)OC(C)C` [Compound 1, Isopropyl (S)-2-((S)-2-acetamido-3-(1H-indol-3-yl)propanamido)-6-diazo-5-oxohexanoate], the IC50 (5637, bladder) is reported as 2.43 µM, the IC50 (CLS439, bladder) is reported as 8.43 µM and the GI50 [1] is reported as 1.02 µM. For the same molecule, the IC50 [1] was 1.1 µM, the GI50 [2] was 3.34 µM and the IC50 [2] was 3.84 µM. The GI50 [3] was 2.65 µM, the IC50 [3] was 20.3 µM and the GI50 (Homo sapiens, A549, A549, lung) was 9.04 µM. For the same molecule, the IC50 (Homo sapiens, A549, A549, lung) was 9.28 µM, the GI50 [4] was 3.49 µM and the IC50 [4] was 3.87 µM. It also gave a GI50 [5] of 3.04 µM, an IC50 [5] of 3.28 µM and a GI50 [6] of 4.13 µM. The IC50 [6] was 4.39 µM, the GI50 [7] was 14.2 µM and the IC50 [7] was 18.4 µM. It also gave a GI50 (Homo sapiens, ACHN, kidney) of 7.88 µM, an IC50 (Homo sapiens, ACHN, kidney) of 8.98 µM and a GI50 [8] of 5.96 µM. It also gave an IC50 [8] of 8.36 µM, a GI50 [9] of 20 µM and an IC50 [9] of 53.1 µM. For the same molecule, the GI50 (Homo sapiens, BXPC-3, BXPC3, pancreas) was 4.24 µM, the GI50 [10] was 7.46 µM and the IC50 [10] was 7.69 µM. For the same molecule, the GI50 [11] was 5.3 µM, the IC50 [11] was 6.84 µM and the GI50 [12] was 2.73 µM. For the same molecule, the IC50 [12] was 4.66 µM, the GI50 (Homo sapiens, COLO-678, COLO678, colon) was 93 µM and the GI50 [13] was 5.9 µM. For the same molecule, the IC50 [13] was 7.83 µM, the GI50 [14] was 19.4 µM and the IC50 [14] was 28.2 µM. It also gave a GI50 [15] of 5.88 µM, an IC50 [15] of 7.07 µM and a GI50 [16] of 9.25 µM. The IC50 [16] was 9.59 µM, the GI50 [17] was 8.82 µM and the IC50 [17] was 10.9 µM. For the same molecule, the GI50 [18] was 6.86 µM, the IC50 [18] was 14.1 µM and the GI50 [19] was 5.82 µM. For the same molecule, the IC50 [19] was 6.55 µM, the GI50 [20] was 0.687 µM and the IC50 [20] was 0.768 µM. For the same molecule, the GI50 [21] was 20.1 µM, the IC50 [21] was 21.7 µM and the GI50 [22] was 1.31 µM. For the same molecule, the IC50 [22] was 1.33 µM, the GI50 [23] was 9.21 µM and the IC50 [23] was 10.4 µM. For the same molecule, the GI50 [24] was 1.09 µM, the IC50 [24] was 1.1 µM and the GI50 [25] was 0.88 µM. It also gave an IC50 [25] of 1.07 µM, a GI50 [26] of 2.61 µM and an IC50 [26] of 3.04 µM. The GI50 [27] was 11.8 µM, the IC50 [27] was 13.4 µM and the GI50 [28] was 7.87 µM. For the same molecule, the IC50 [28] was 9.85 µM, the GI50 (Homo sapiens, Hs-578T, HS578T, breast) was 36.4 µM and the GI50 [29] was 8.98 µM. The IC50 [29] was 10.7 µM, the GI50 (Homo sapiens, IMR-90, IMR90, lung) was 14.6 µM and the GI50 [30] was 3.87 µM. It also gave an IC50 [30] of 4.78 µM, a GI50 [31] of 19.4 µM and an IC50 [31] of 40.6 µM. It also gave a GI50 [32] of 1.15 µM, an IC50 [32] of 1.2 µM and a GI50 [33] of 3.17 µM. It also gave an IC50 [33] of 7.95 µM, a GI50 [34] of 0.546 µM and an IC50 [34] of 0.717 µM. It also gave a GI50 (Homo sapiens, LoVo, colon) of 5.16 µM, an IC50 (Homo sapiens, LoVo, colon) of 5.55 µM and a GI50 [35] of 4.13 µM. It also gave an IC50 [35] of 8.59 µM, a GI50 [36] of 11.6 µM and an IC50 [36] of 14.6 µM. The GI50 [37] was 14.7 µM, the IC50 [37] was 15.2 µM and the GI50 [38] was 49.3 µM. It also gave an IC50 [38] of 131 µM.
